As a reminder, the IC50 is the concentration at which inhibition is half-maximal.

The test system of one assay is phospho-CDK1 (Tyr15). Put plainly: Immunoblotting of phospho-CDK1. The class given is cell-based, human. The note with it: synchronized HEK293T and MDA-MB-231 cells, 6 h drug treatment. A general note: A western blot detects proteins with antibodies after separation by electrophoresis.
Assay [1] deals with HEK293T, MM1.S, and MDA-MB-231 cells. Put plainly: Cell viability across HEK293T, MM1.S and MDA-MB-231. The class given is cell-based. The note with it: Homo sapiens, 72 h, read-out: cell viability IC50 values (range over cell lines).
Assay [2] deals with phosphorylated TCTP (PLK1 substrate). Put plainly: Immunoblotting of phospho-TCTP. It counts as cell-based, human. Particulars: synchronized HEK293T and MDA-MB-231 cells, 6 h drug treatment.
A further assay concerns the target T1, Myt1-KD (Homo sapiens, UniProt Q99640).
T1 sequence (Q99640 75-361): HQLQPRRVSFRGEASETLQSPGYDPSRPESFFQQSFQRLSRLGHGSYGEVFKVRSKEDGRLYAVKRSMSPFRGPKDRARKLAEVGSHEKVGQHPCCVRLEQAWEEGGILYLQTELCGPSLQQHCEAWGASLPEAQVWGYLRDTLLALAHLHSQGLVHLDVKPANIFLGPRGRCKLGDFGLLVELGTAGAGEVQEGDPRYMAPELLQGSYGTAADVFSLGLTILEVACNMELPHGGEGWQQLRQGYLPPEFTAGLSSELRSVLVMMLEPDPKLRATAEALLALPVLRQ
Put plainly: DSF thermal shift, Myt1 kinase domain. The class given is binding. The note with it: DSF screen, 100 μM.

For `CC[C@@H]1C(=O)N(C)c2cnc(Nc3ccc(C(=O)NC4CCN(C)CC4)cc3OC)nc2N1C1CCCC1` [BI-2536], the “effect on CDK1 phosphorylation” value in the assay with phospho-CDK1 (Tyr15) is “no effect”. On to `C=CCn1c(=O)c2cnc(Nc3ccc(N4CCN(C)CC4)cc3)nc2n1-c1cccc(C(C)(C)O)n1` [MK-1775], for which the IC50 in assay [1] was 290 to 310 nM. In addition, the “effect on CDK1 phosphorylation” value in the assay with phospho-CDK1 (Tyr15) is “reducing the levels of phosphorylated CDK1”. Besides, the “reduction of phosphorylation levels, times less effective than BI-2536 and 1” value in assay [2] is “about 10 times”.

Regarding `C[C@@H](Oc1cc(-n2cnc3ccc(CN4CCN(C)CC4)cc32)sc1C(N)=O)c1ccccc1C(F)(F)F` [compound 1, (R)-5-(6-((4-methylpiperazin-1-yl)methyl)-1H-benzo[d]imidazol-1-yl)-3-(1-(2-(trifluoromethyl)phenyl)-ethoxy)thiophene-2-carboxamide], the “effect on CDK1 phosphorylation” value in the assay on phospho-CDK1 (Tyr15) is reported as “no effect”. As for `CC(=O)NCC(=O)N1[C@@H]2CC[C@H]1c1ccc(Nc3ncc(C(F)(F)F)c(NC4CCC4)n3)cc12` [compound 2], the “binding potential for Myt1 (in words)” value at Myt1-KD was “no binding potential”.

For the origin of these results see publication PMC6200136 (Journal of medicinal chemistry, 2017).
